Aβ40 reduction data for three molecules are collected here from patent US10059669B2, “2-amino-3,5-difluoro-3,6-dimethyl-6-phenyl-3,4,5,6-tetrahydropyridines as BACE1 inhibitors for treating alzheimer's disease” (H. Lundbeck A/S, priority 2014, dated 2018).

In the assay the test system is Aβ40. Kind of assay: Assessment of Aβ levels in rat brain and plasma following BACE1 inhibition (Aβ40 ELISA). Type of assay: in vivo. Conditions: 180 minutes, vs vehicle. How it is done: Assessment of Aβ Levels in Rat Brain and Plasma Following BACE1 Inhibition. Animals.
All rat care and experimental procedures were approved by Lundbeck Veterinary Staff, according to Danish legislature. The rats were maintained in a barrier facility with a 12/12-h light/dark cycle and ad libitum food and water access.
Young adult Male Sprague Dawley rats of approximately 250 g weight were purchased from Charles River and received 0-30 mg/kg of vehicle (10% HP betaCD+1M MeSO4, pH 2.5) or test compounds (dissolved in vehicle) only by oral gavage (p.o). The compounds are dosed at a volume of 5 ml/kg. Cohorts of 5-10 animals were established for each treatment condition.
At T=180 minutes after initial dosing the animals were stunned and decapitated with a guillotine. Trunk-blood was sampled in EDTA coated tubes after decapitation of the animal. The blood was centrifuged at 2200G at 4° C. for 15 minutes and the plasma was collected and frozen at −80° C. The blood was aliquoted for Aβ ELISA and DMPK analysis. Immediately following sacrifice, the brain was extracted and split into 2 halves. The right hemibrains were snap frozen on dry ice and stored at −80° C. The left half was dissected; with the front forebrain taken for Aβ ELISA and the remainder used for DMPK analysis. These samples were also snap frozen on dry ice and stored at −80° C. until use for analysis.
The cortex samples were thawed slightly on wet ice before they were homogenized with a small volume dispersing instrument (T10 basic ULTRA-TURRAX®) which was set at speed 5 for approximately 5-7 sec. The tissue was processed in a 10 times volume of the weight, for example 100 mg of tissue was homogenized in 1000 μL of Homogenization buffer. Homogenization buffer: 50 ml Milli Q water+50 nM NaCl+0.2% Diethylamin (DEA)+1 tablet of Complete Protease inhibitor cocktail+1 nM 4-(2-aminoethyl) benzenesulfonyl fluoride hydrochloride irreversible serine protease inhibitor (AEBSF).
After homogenization 450 μL aliquots of the samples are collected into a 1.5 ml Eppendorf tube and placed on wet ice, 0.5% NP-40 (50 ul) was added to all samples and then they were incubated on ice for 30 min. After which all samples were sonicated using an Ultrasonic homogenizer with 20 kHz homogeneous sound (SONOPLUS HD2070, Bandelin Electronic) 10 pulse set at 12-13% power to extract all the Aβ species. The samples were then centrifuged (Ole Dich 157 MPRF Micro centrifuge) at 20000G for 20 minutes at 4° C. After centrifugation 285 μL of the supernatant was pipetted into 600 μL microtubes tubes and neutralized with 15 μL of 1M Tris-HCL buffer.
WAKO 294-62501 Human/Rat Abeta amyloid (40) kit was used for all ELISA analyses. 30 μL plasma samples or 30 μL of the cortex supernatants generated as described above were placed in 600 μL microtubes tubes on wet ice. To this 30 μL of 8M Urea (AppliChem A1049, 9025) are added to generate a 2-fold dilution. Both plasma and cortex supernatants are incubated on ice for 30 min. Standard rows were prepared from the standard peptide stock provided in the kit and standard diluent containing 1.6M Urea (200 μL 8M Urea+800 μL of standard diluent) and 0.8M Urea (400 μL 8M Urea+3600 μL Standard diluent). A serial 2-fold dilution of A340 from […] to 0 μmol/L was prepared for the assay.
After incubation with urea, all samples were further diluted by addition of 5 times standard diluent from the Kit. This was done by adding 240 μL Standard Diluent to 60 μL sample/urea mixture, which was then mixed well. 100 μL of each diluted sample was pipetted into designated wells of the ELISA plate in duplicates. The plate was then covered and incubated overnight at 4° C. The following day, the ELISA kit was brought to room temperature before use. The incubated plate was washed 5 times with the 20× washing solution diluted in Milli Q water. 100 μL HRP-conjugate was applied to each well, and the plate was covered and incubates at 4° C. for 1 hr. The wash was repeated again for 5 times. […]

For `COc1ccc(C(=O)Nc2ccc(F)c([C@@]3(C)N=C(N)[C@@](C)(F)C[C@@H]3F)c2)nc1` [Compound 3, N-(3-((2R,3S,5S)-6-amino-3,5-difluoro-2,5-dimethyl-2,3,4,5-tetrahydropyridin-2-yl)-4-fluorophenyl)-5-methoxypicolinamide], the Aβ40 reduction stood at 35% (Brain Rat, 10 mg/kg p.o.); 61% (Brain Rat, 30 mg/kg p.o.); 24% (Plasma Rat, 10 mg/kg p.o.); 53% (Plasma Rat, 30 mg/kg p.o.).

Take `[2H]C([2H])([2H])Oc1ccc(C(=O)Nc2ccc(F)c([C@@]3(C)N=C(N)[C@@](C)(F)C[C@@H]3F)c2)nc1` [Compound 19, N-(3-((2R,3S,5S)-6-amino-3,5-difluoro-2,5-dimethyl-2,3,4,5-tetrahydropyridin-2-yl)-4-fluorophenyl)-5-(methoxy-d3)picolinamide]: the Aβ40 reduction is on record as 56% (Brain Rat, 10 mg/kg p.o.); 66% (Brain Rat, 30 mg/kg p.o.); 49% (Plasma Rat, 10 mg/kg p.o.); 53% (Plasma Rat, 30 mg/kg p.o.).

With `[2H]C([2H])([2H])Oc1cnc(C(=O)Nc2ccc(F)c([C@@]3(C)N=C(N)[C@@](C)(F)C[C@@H]3F)c2)cn1` [Compound 20, N-(3-((2R,3S,5S)-6-amino-3,5-difluoro-2,5-dimethyl-2,3,4,5-tetrahydropyridin-2-yl)-4-fluorophenyl)-5-(methoxy-d3)pyrazine-2-carboxamide], the Aβ40 reduction was 52% (Brain Rat, 3 mg/kg p.o.) and 64% (Plasma Rat, 3 mg/kg p.o.).
